Assay results from BindingDB's records for doi:10.2174/1568007033482805 (University of Sydney, 2003).

Molecular target: T1, Gamma-aminobutyric acid receptor subunit alpha-3 (Homo sapiens, UniProt P34903)
T1 sequence (P34903 whole entry): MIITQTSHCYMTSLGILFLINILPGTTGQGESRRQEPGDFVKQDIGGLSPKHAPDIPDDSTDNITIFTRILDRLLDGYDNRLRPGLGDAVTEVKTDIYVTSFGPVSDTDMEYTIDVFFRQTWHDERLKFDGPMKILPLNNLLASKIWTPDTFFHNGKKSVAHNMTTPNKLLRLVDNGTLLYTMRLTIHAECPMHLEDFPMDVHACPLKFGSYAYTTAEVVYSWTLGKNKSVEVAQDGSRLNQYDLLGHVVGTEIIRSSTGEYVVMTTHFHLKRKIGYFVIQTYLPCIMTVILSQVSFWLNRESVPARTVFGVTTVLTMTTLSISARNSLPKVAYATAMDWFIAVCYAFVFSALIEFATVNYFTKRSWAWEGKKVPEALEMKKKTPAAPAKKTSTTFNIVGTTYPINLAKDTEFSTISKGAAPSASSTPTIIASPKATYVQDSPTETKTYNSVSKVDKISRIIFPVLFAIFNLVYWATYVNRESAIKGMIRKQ

Row | SMILES | Ki [µM]
1 | O=c1o[nH]c2c1CCNC2 [NSC_130546] | 7.9
2 | O=c1[nH][nH]c2c1CCNC2 [THIP, Aza-] | > 10
